Test results reported in patent US6264916A, “N,N-dimethyldiatrizoic acid and its conjugates as hepatobiliary agents for x-ray CT imaging” (Bracco Research, USA, priority 2000, dated 2001).
Like-named read-outs stand apart in the source and are kept apart here.

Assay: Biodistribution studies in mice (radioiodinated compounds, % ID/g-tissue)
Type: in vivo
Settings: tracer level, but MDTA-Na 0.18M and MDTA-NMG 0.19M; for tissue uptake at 1 min / tissue uptake at 5 min / tissue uptake at 1 h: mouse, iv
Protocol: All of the new analogs were radiolabeled in order to determine their physical and biological properties. The iodinated compounds were exchange-labeled by heating with Na^125 I in the presence of CuSO4 and Na2 S2 O5 in glacial acetic acid at 135-150° C. for 1 h, followed by HPLC purification using a nucleosil C18 column and CH3 CN--H2 O containing 0.1% TFA as an eluent. In some cases (e.g. the compound of Example 12) the radioiodination was carried out by heating with Na*I in HOAc--NaOAc (pH 4.6) at 100° C. for 15 min. In all cases radiolabeled compounds of acceptable radiochemical purity and specific activity were obtained.
The compound of formula I, N,N-dimethyl-diatrizoic acid, was similarly radiolabeled for biological studies.
a) For intravenous administration the preferred vehicle for the compounds of formula I, II and III is bovine serum albumin, however, other physiologically acceptable vehicles may also be used.
Biodistribution studies were conducted in mice and the results are given in Table I. X-Ray CT images of MDTA in mice and rats indicate that these hydrophobic diatrizoate analogs may be of promise for liver imaging.

[1] = blood, blood, 1', read-out: Biodistribution, Blood 1'
[2] = blood, blood, 5', read-out: Biodistribution, Blood 5'
[3] = blood, blood, 60', read-out: Biodistribution, Blood 60'
[4] = kidney, kidney, 1', read-out: Biodistribution, Kidney 1'
[5] = kidney, kidney, 5', read-out: Biodistribution, Kidney 5'
[6] = kidney, kidney, 60', read-out: Biodistribution, Kidney 60'
[7] = liver, liver, 1', read-out: Biodistribution, Liver 1'
[8] = liver, liver, 5', read-out: Biodistribution, Liver 5'
[9] = liver, liver, 60', read-out: Biodistribution, Liver 60'
[10] = small/large intestine, small/large intestine, 1', read-out: Biodistribution, Sm/Lrg. Intestine 1'
[11] = small/large intestine, small/large intestine, 5', read-out: Biodistribution, Sm/Lrg. Intestine 5'
[12] = small/large intestine, small/large intestine, 60', read-out: Biodistribution, Sm/Lrg. Intestine 60'

| Compound | tissue uptake at 1 min [1] | tissue uptake at 5 min [2] | tissue uptake at 1 h [3] | tissue uptake at 1 min [4] | tissue uptake at 5 min [5] | tissue uptake at 1 h [6] | tissue uptake at 1 min [7] | tissue uptake at 5 min [8] | tissue uptake at 1 h [9] | tissue uptake at 1 min [10] | tissue uptake at 5 min [11] | tissue uptake at 1 h [12] | other results |
| --- | --- | --- | --- | --- | --- | --- | --- | --- | --- | --- | --- | --- | --- |
| 9(10)-N-(4-(((3,5-Bis-(acetylmethylamino)-2,4,6-triiodophenyl)carbonyl)amino)benzoyl)amino-octadecanoic acid [9/10-F-18P-MDTA] |  |  |  |  |  |  |  |  |  |  |  |  | Biodistribution, Blood 1' (blood, 1', 1 min): 6.16 % ID/g-tissue; Biodistribution, Blood 5' (blood, 5', 5 min): 0.46 % ID/g-tissue; Biodistribution, Blood 60' (blood, 60', 60 min): 0.26 % ID/g-tissue; Biodistribution, Kidney 1' (kidney, 1', 1 min): 3.32 % ID/g-tissue; Biodistribution, Kidney 5' (kidney, 5', 5 min): 2.09 % ID/g-tissue; Biodistribution, Kidney 60' (kidney, 60', 60 min): 0.39 % ID/g-tissue; Biodistribution, Liver 1' (liver, 1', 1 min): 30.29 % ID/g-tissue; Biodistribution, Liver 5' (liver, 5', 5 min): 32.33 % ID/g-tissue; Biodistribution, Liver 60' (liver, 60', 60 min): 3.16 % ID/g-tissue; Biodistribution, Sm/Lrg. Intestine 1' (small/large intestine, 1', 1 min): 0.51 % ID/g-tissue; Biodistribution, Sm/Lrg. Intestine 5' (small/large intestine, 5', 5 min): 2.71 % ID/g-tissue; Biodistribution, Sm/Lrg. Intestine 60' (small/large intestine, 60', 60 min): 20.21 % ID/g-tissue |
| CC(=O)N(C)c1c(I)c(C(=O)NCC(=O)O)c(I)c(N(C)C(C)=O)c1I [Example F2-DP-MDTA, 4-[[[3,5-Bis(acetylmethylamino)-2,4,6-triiodophenyl]carbonyl]amino]-acetic acid] | 4.57 %ID/g | 0.81 %ID/g | 0.03 %ID/g | 17.1 %ID/g | 5.69 %ID/g | 0.16 %ID/g | 12.8 %ID/g | 10.6 %ID/g | 1.03 %ID/g | 1.28 %ID/g | 8.81 %ID/g | 16.5 %ID/g |  |
| CC(=O)N(C)c1c(I)c(C(=O)Nc2ccc(CC(=O)O)cc2)c(I)c(N(C)C(C)=O)c1I [Example F2-P-MDTA, 4-(((3,5-Bis(Acetylmethylamino)-2,4,6-triiodophenyl)carbonyl)amino)-benzeneacetic acid] | 4.83 %ID/g | 0.96 %ID/g | 0.04 %ID/g | 11.5 %ID/g | 5.83 %ID/g | 0.33 %ID/g | 17.9 %ID/g | 12.9 %ID/g | 2.25 %ID/g | 2.47 %ID/g | 9.54 %ID/g | 25.4 %ID/g |  |
| CC(=O)N(C)c1c(I)c(C(=O)NCCCC(=O)O)c(I)c(N(C)C(C)=O)c1I [Example F4-DP-MDTA, 4-[[[3,5-Bis(acetylmethylamino)-2,4,6-triiodophenyl]carbonyl]amino]-butanoic acid] | 4.91 %ID/g | 0.82 %ID/g | 0.12 %ID/g | 17.9 %ID/g | 7.89 %ID/g | 0.05 %ID/g | 16.1 %ID/g | 11.9 %ID/g | 0.33 %ID/g | 1.73 %ID/g | 11.3 %ID/g | 21.2 %ID/g |  |
| CC(=O)N(C)c1c(I)c(C(=O)Nc2ccc(CCCC(=O)O)cc2)c(I)c(N(C)C(C)=O)c1I [Example F4-P-MDTA, 4-(((3,5-Bis(acetylmethylamino)-2,4,6-triiodophenyl)carbonyl)amino)benzenebutyric acid] | 3.55 %ID/g | 0.57 %ID/g | 0.07 %ID/g | 5.63 %ID/g | 5.41 %ID/g | 0.63 %ID/g | 29.6 %ID/g | 29.4 %ID/g | 6.13 %ID/g | 1.71 %ID/g | 4.56 %ID/g | 20.4 %ID/g |  |
| CC(=O)N(C)c1c(I)c(C(=O)NCCCCCCC(=O)O)c(I)c(N(C)C(C)=O)c1I [Example F7-DP-MDTA] | 2.44 %ID/g | 0.57 %ID/g | 0.05 %ID/g | 9.5 %ID/g | 8.33 %ID/g | 0.16 %ID/g | 17.1 %ID/g | 9.81 %ID/g | 0.77 %ID/g | 4.92 %ID/g | 14.5 %ID/g | 22.2 %ID/g |  |
| CC(=O)N(C)c1c(I)c(C(=O)Nc2ccc(CCCCCCC(=O)O)cc2)c(I)c(N(C)C(C)=O)c1I [Example F7-P-MDTA, 4-[[[3,5-Bis(acetylmethylamino)-2,4,6-triiodophenyl]carbonyl]amino]benzeneheptanoic acid] | 2.38 %ID/g | 0.57 %ID/g | 0.15 %ID/g | 4.28 %ID/g | 2.94 %ID/g | 0.3 %ID/g | 39.5 %ID/g | 37.2 %ID/g | 5.02 %ID/g | 1.38 %ID/g | 6.2 %ID/g | 26.8 %ID/g |  |
| CC(=O)N(C)c1c(I)c(C(=O)Nc2ccc(CCCCCCCCCCC(=O)O)cc2)c(I)c(N(C)C(C)=O)c1I [Example F11-P-MDTA, 4-[[[3,5-Bis(acetylmethylamino)-2,4,6-triiodophenyl]carbonyl]amino]benzeneundecanoic acid] | 9.14 %ID/g | 0.74 %ID/g | 0.08 %ID/g | 6.21 %ID/g | 3.63 %ID/g | 0.1 %ID/g | 57.9 %ID/g | 60.1 %ID/g | 2.96 %ID/g | 1.14 %ID/g | 3.06 %ID/g | 38.2 %ID/g |  |
| CC(=O)N(C)c1c(I)c(C(=O)NCCCCCCCCCCCC(=O)O)c(I)c(N(C)C(C)=O)c1I [Example F12-DP-MDTA] | 2.38 %ID/g | 0.39 %ID/g | 0.04 %ID/g | 9.89 %ID/g | 5.72 %ID/g | 0.07 %ID/g | 28.9 %ID/g | 16.6 %ID/g | 2.17 %ID/g | 2.28 %ID/g | 11.6 %ID/g | 28 %ID/g |  |
| CC(=O)N(C)c1c(I)c(C(=O)Nc2ccc(CCCCCCCCCCCCCCC(=O)O)cc2)c(I)c(N(C)C(C)=O)c1I [Example F15-P-MDTA, 4-[[[3,5-Bis(acetylmethylamino)-2,4,6-triiodophenyl]carbonyl]amino]benzenepentadecanoic acid] | 24.6 %ID/g | 4.28 %ID/g | 0.12 %ID/g | 8.28 %ID/g | 5.1 %ID/g | 0.34 %ID/g | 46.4 %ID/g | 76.3 %ID/g | 6.18 %ID/g | 2.13 %ID/g | 4.85 %ID/g | 43.7 %ID/g |  |
| CC(=O)N(C)c1c(I)c(C(=O)Nc2ccc(CCCCCCCCCCCCCCCCCCC(=O)O)cc2)c(I)c(N(C)C(C)=O)c1I [Example F19-P-MDTA] | 36.7 %ID/g | 13.2 %ID/g | 0.68 %ID/g | 5.56 %ID/g | 5.45 %ID/g | 2.67 %ID/g | 17.2 %ID/g | 24.7 %ID/g | 10.4 %ID/g | 1.05 %ID/g | 2.4 %ID/g | 14.4 %ID/g |  |
